Reference: patent US10703748B2, “Diazanaphthalen-3-yl carboxamides and preparation and use thereof” (Samumed, LLC, priority 2017, dated 2020)

Tests used:
[1] = tested on: IL-6; test: IL-6 inhibition in LPS-stimulated human peripheral blood mononuclear cells (HTRF); conditions: Homo sapiens, PBMC; for EC50: 22 h; for inhibition at 10 µM: read-out: percentage in parentheses after EC50 >10
[2] = tested on: SW480 colon carcinoma cells; test: Cell viability assay (CellTiter-Glo); conditions: Homo sapiens; for EC50: SW480, 96 h; for inhibition at 10 µM: SW480, read-out: percent inhibition at 10 μM
[3] = tested on: secreted cytokines TNFα, IL-6 and KC-GRO; test: Secreted cytokines in Lipopolysaccharide-stimulated BV-2 cells (Table 9 does not say which cytokine); format: cell-based, mouse; conditions: Mus musculus, BV-2, 5 h; read-out: EC50
[4] = tested on: α-smooth muscle actin (aSMA) positive LL29 cells; test: Inhibition of the fibrotic process: αSMA staining in TGF-β1 treated LL29 fibroblasts from IPF patients; conditions: Homo sapiens, Fibroblast; for EC50: 96 h; for inhibition at 10 µM: read-out: percentage in parentheses after EC50 >10
Protocol: Each compound was dissolved in DMSO as a 10 mM stock and used to prepare compound source plates. […] LL29 cells were plated at 1,500 cells/well in 70 μL/well F12 medium supplemented with 1% Fetal Bovine Serum. […] Wells treated with TGF-β1 and containing DMSO were used as positive control, and cells with only DMSO were negative control. Cells were incubated at 37° C. and 5% CO2 for 4 days. Following incubation for 4 days, SYTOX green nucleic acid stain (Life Technologies [Thermo Fisher Scientific]) was added to the wells at a final concentration of 1 μM and incubated at room temperature for 30 min. Cells were then fixed using 4% formaldehyde (Electron Microscopy Sciences), washed 3 times with PBS followed by blocking and permeabilization using 3% Bovine Serum Albumin (BSA; Sigma) and 0.3% Triton X-100 (Sigma) in PBS.

[5] = molecular target: GSK3β kinase (Homo sapiens, UniProt P49841); test: GSK3β kinase activity (Ser/Thr 09 peptide Z-lyte FRET assay); format: biochemical; conditions: recombinant kinase, 46 μM ATP, one hour at room temperature; read-out: EC50
[6] = molecular target: DYRK1A kinase (Homo sapiens, UniProt Q13627); test: DYRK1A kinase activity (Ser/Thr 18 peptide Z-lyte FRET assay); format: biochemical; conditions: recombinant DYRK1A, 30 μM ATP, one hour at room temperature;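 further: kinase activity read as coumarin/fluorescein emission ratio after development step, with unphosphorylated and phosphorylated peptide forms setting 0% and 100% controls, values from dose-response curves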
[7] = tested on: Wnt-responsive Sp5-Luc reporter in SW480 colon carcinoma cells; test: Screening assay for Wnt activity (Sp5-Luc reporter gene assay); conditions: Homo sapiens; for EC50: SW480; for inhibition at 10 µM: SW480, read-out: percent inhibition at 10 μM

Sequence of GSK3β kinase (P49841 whole entry): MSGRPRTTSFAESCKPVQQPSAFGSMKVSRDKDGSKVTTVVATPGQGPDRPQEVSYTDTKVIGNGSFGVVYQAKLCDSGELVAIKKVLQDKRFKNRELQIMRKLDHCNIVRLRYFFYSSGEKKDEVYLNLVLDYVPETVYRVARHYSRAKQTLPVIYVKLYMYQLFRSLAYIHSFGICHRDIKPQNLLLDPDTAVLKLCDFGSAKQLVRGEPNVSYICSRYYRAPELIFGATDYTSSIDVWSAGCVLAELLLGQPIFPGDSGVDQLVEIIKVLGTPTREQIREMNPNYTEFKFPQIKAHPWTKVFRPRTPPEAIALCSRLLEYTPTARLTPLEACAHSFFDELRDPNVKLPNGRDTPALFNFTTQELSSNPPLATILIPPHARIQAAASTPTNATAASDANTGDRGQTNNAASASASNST

Row | EC50 [1] | EC50 [2] | EC50 [3] | EC50 [5] | EC50 [6] | EC50 [7] | SMILES | inhibition at 10 µM [2] | EC50 [4] | inhibition at 10 µM [4] | inhibition at 10 µM [7] | inhibition at 10 µM [1]
1 | 7.31 µM | > 10 µM | 919 nM | 4.94 µM | 74 nM | > 10 µM | Cn1cc(-c2cnc3cnc(NC(=O)CC4CNCCO4)cc3c2)cn1 (stereo not shown) [Compound 2807, N-(3-(1-Methyl-1H-pyrazol-4-yl)-1,7-naphthyridin-6-yl)-2-(morpholin-2-yl) acetamide] | 7.9% | > 10 µM | 35.2% | 0% | –
2 | > 10 µM | > 10 µM | 445 nM | 5.26 µM | 24 nM | > 10 µM | Cn1cc(-c2cnc3cnc(NC(=O)C4CCN(Cc5ncco5)CC4)cc3c2)cn1 [Compound 2816, N-(3-(1-Methyl-1H-pyrazol-4-yl)-1,7-naphthyridin-6-yl)-1-(oxazol-2-ylmethyl)piperidine-4-carboxamide] | 23.2% | > 10 µM | 27.3% | 15.4% | 2.2%
3 | > 10 µM | > 10 µM | 895 nM | 7.06 µM | 37 nM | > 10 µM | Cn1cc(-c2cnc3cnc(NC(=O)C4CCN(Cc5ncccn5)CC4)cc3c2)cn1 [Compound 2820, N-(3-(1-Methyl-1H-pyrazol-4-yl)-1,7-naphthyridin-6-yl)-1-(pyrimidin-2-ylmethyl)piperidine-4-carboxamide] | 22.4% | 8.91 µM | – | 5.3% | 3.3%
4 | > 10 µM | > 10 µM | 5300 nM | 5.37 µM | 82 nM | > 10 µM | CN1CCCN(CC(=O)Nc2cc3cc(-c4cnn(C)c4)cnc3cn2)CC1 [Compound 2826, 2-(4-Methyl-1,4-diazepan-1-yl)-N-(3-(1-methyl-1H-pyrazol-4-yl)-1,7-naphthyridin-6-yl)acetamide] | 20.4% | > 10 µM | 37.9% | 11.2% | 2.1%
5 | > 10 µM | 4.69 µM | 1700 nM | > 10 µM | 16 nM | > 10 µM | CN1CCN(c2ccc(C(=O)Nc3cc4cc(-c5cnn(C)c5)cnc4cn3)cn2)CC1 [Compound 2871, N-(3-(1-Methyl-1H-pyrazol-4-yl)-1,7-naphthyridin-6-yl)-6-(4-methylpiperazin-1-yl)nicotinamide] | – | 9.77 µM | – | 24.5% | 0%
6 | > 10 µM | 0.692 µM | 131 nM | 0.453 µM | 28 nM | 0.751 µM | Cn1cc(-c2cnc3cnc(NC(=O)CCc4ccccc4)cc3c2)cn1 [Compound 2914, N-(3-(1-Methyl-1H-pyrazol-4-yl)-1,7-naphthyridin-6-yl)-3-phenylpropanamide] | – | 0.893 µM | – | – | 5%
7 | > 10 µM | 1.06 µM | 234 nM | > 10 µM | 17 nM | 0.835 µM | Cn1cc(-c2cnc3cnc(NC(=O)c4ccc5ccoc5c4)cc3c2)cn1 [Compound 2929, N-(3-(1-Methyl-1H-pyrazol-4-yl)-1,7-naphthyridin-6-yl)benzofuran-6-carboxamide] | – | 2.25 µM | – | – | 4.5%
8 | 9.15 µM | 0.44 µM | 454 nM | > 10 µM | 24 nM | 0.059 µM | CN1CCC(n2cc(C(=O)Nc3cc4cc(-c5cnn(C)c5)cnc4cn3)cn2)CC1 [Compound 2949, N-(3-(1-Methyl-1H-pyrazol-4-yl)-1,7-naphthyridin-6-yl)-1-(1-methylpiperidin-4-yl)-1H-pyrazole-4-carboxamide] | – | 5.15 µM | – | – | –
9 | > 10 µM | 1.5 µM | 491 nM | > 10 µM | 28 nM | 0.915 µM | CC(C)OC(=O)N1CCC(n2cc(C(=O)Nc3cc4cc(-c5cnn(C)c5)cnc4cn3)cn2)CC1 [Compound 2954, Isopropyl 4-(4-((3-(1-methyl-1H-pyrazol-4-yl)-1,7-naphthyridin-6-yl)carbamoyl)-1H-pyrazol-1-yl)piperidine-1-carboxylate] | – | 3.34 µM | – | – | 45%
10 | > 10 µM | 3.37 µM | 1200 nM | > 10 µM | 17 nM | 2.61 µM | CN1CCN(c2cc(C(=O)Nc3cc4cc(-c5cnn(C)c5N)cnc4cn3)ccn2)CC1 [Compound 3024, N-(3-(5-Amino-1-methyl-1H-pyrazol-4-yl)-1,7-naphthyridin-6-yl)-2-(4-methylpiperazin-1-yl)isonicotinamide] | – | > 10 µM | 50% | – | 11.1%
11 | 1.65 µM | 0.599 µM | 127 nM | > 10 µM | 8 nM | 0.607 µM | CN1CCC2(CC1)CN(c1cc(C(=O)Nc3cc4cc(-c5cnn(C)c5CN5CCCCC5)cnc4cn3)ccn1)C2 [Compound 3032, N-(3-(1-Methyl-5-(piperidin-1-ylmethyl)-1H-pyrazol-4-yl)-1,7-naphthyridin-6-yl)-2-(7-methyl-2,7-diazaspiro[3.5]nonan-2-yl)isonicotinamide] | – | 1.58 µM | – | – | –
12 | > 10 µM | > 10 µM | 3900 nM | 0.836 µM | 58 nM | 4.5 µM | Cn1cc(-c2cnc3cnc(NC(=O)C4CCN(CC5(C(F)(F)F)CC5)CC4)cc3c2)nn1 [Compound 3067, N-(3-(1-Methyl-1H-1,2,3-triazol-4-yl)-1,7-naphthyridin-6-yl)-1-((1-(trifluoromethyl)cyclopropyl)methyl)piperidine-4-carboxamide] | 42.2% | > 10 µM | 31.7% | – | 0%
13 | > 10 µM | > 10 µM | 2600 nM | > 10 µM | 8 nM | > 10 µM | Cn1cncc1-c1cnc2cnc(NC(=O)c3ccc(F)cc3)cc2c1 [Compound 3168, 4-Fluoro-N-(3-(1-methyl-1H-imidazol-5-yl)-1,7-naphthyridin-6-yl) benzamide] | 25.8% | > 10 µM | 10.2% | 17.3% | 0%
14 | > 10 µM | 4.07 µM | ≥ 10000 nM | > 10 µM | 6 nM | 4.78 µM | Cn1cncc1-c1cnc2cnc(NC(=O)c3ccc4c(c3)CNC4)cc2c1 [Compound 3194, N-(3-(1-Methyl-1H-imidazol-5-yl)-1,7-naphthyridin-6-yl)isoindoline-5-carboxamide] | – | > 10 µM | 47.3% | – | 8.9%
15 | > 10 µM | > 10 µM | 458 nM | 5.3 µM | 16 nM | > 10 µM | CC(F)(F)CN1CCC(C(=O)Nc2cc3cc(-c4cnco4)cnc3cn2)CC1 [Compound 3257, 1-(2,2-Difluoropropyl)-N-(3-(oxazol-5-yl)-1,7-naphthyridin-6-yl)piperidine-4-carboxamide] | 15% | > 10 µM | 36% | 12.9% | 3.2%
16 | > 10 µM | 1.94 µM | 1200 nM | > 10 µM | 24 nM | 3.5 µM | Cn1cncc1-c1cnc2cnc(NC(=O)c3cccc(CN4CCCC4)c3)cc2c1 [Compound 3259, N-(3-(1-Methyl-1H-imidazol-5-yl)-1,7-naphthyridin-6-yl)-3-(pyrrolidin-1-ylmethyl)benzamide] | – | > 10 µM | 48.4% | – | 4.1%
17 | > 10 µM | > 10 µM | 420 nM | > 10 µM | 7 nM | > 10 µM | CN1CCC(Oc2cccc(C(=O)Nc3cc4cc(-c5cnco5)cnc4cn3)c2)CC1 [Compound 3311, 3-((1-Methylpiperidin-4-yl)oxy)-N-(3-(oxazol-5-yl)-1,7-naphthyridin-6-yl) benzamide] | 5.4% | 1.44 µM | – | 4.9% | 5.8%
18 | > 10 µM | > 10 µM | 1500 nM | > 10 µM | 40 nM | > 10 µM | CN1CCC(C(=O)Nc2cc3cc(-c4cnsc4)cnc3cn2)CC1 [Compound 3412, N-(3-(Isothiazol-4-yl)-1,7-naphthyridin-6-yl)-1-methylpiperidine-4-carboxamide] | 41.5% | > 10 µM | 46.2% | 47.1% | 2.7%
